In assay [1] the test system is MDR Staphylococcus aureus strain (MDR). As to the kind of experiment: MIC by broth microdilution against MDR Staphylococcus aureus. Particulars: read-out: MIC (MDR). On the technique in general: Dilution methods test growth across graded concentrations, often in twofold steps.
Assay [2] has as its system Clostridium perfringens ATCC13124. As to the kind of experiment: microbe, parasite or virus in culture. Type of assay: cell-based. Particulars: ATCC13124, read-out: MIC (ATCC13124).
The test system of assay [3] is Enterococcus faecium. In words: MIC by broth microdilution against Enterococcus faecium.
Assay [4] has as its system Clostridium difficile ATCC700057. As to the kind of experiment: microbe, parasite or virus in culture. Type of assay: cell-based. Conditions: for MIC: Clostridioides difficile, ATCC700057, read-out: MIC (ATCC700057).
Assay [5] concerns Streptococcus pneumoniae ATCC49619. As to the kind of experiment: MIC by broth microdilution against Streptococcus pneumoniae ATCC49619. Conditions: ATCC49619, read-out: MIC (ATCC49619).
Assay [6] has as its system MDR Streptococcus pneumoniae strain (MDR). In words: MIC by broth microdilution against MDR Streptococcus pneumoniae. Particulars: read-out: MIC (MDR).
Assay [7] has as its system MDR Enterococcus faecium strain (MDR). In words: MIC by broth microdilution against MDR Enterococcus faecium. Conditions: read-out: MIC (MDR).
Assay [8] concerns Staphylococcus aureus ATCC29213. As to the kind of experiment: MIC by broth microdilution against Staphylococcus aureus ATCC29213. Conditions: ATCC29213, read-out: MIC (ATCC29213).
For assay [9], the system named is Clostridium perfringens clinical isolate (CI). In words: microbe, parasite or virus in culture. Conditions: read-out: MIC (CI). Format: cell-based.
Assay [10] deals with Bacillus subtilis. Format: cell-based.

In brackets after ≈: the same amount, converted by molar mass.

On to `Nc1ccc(-c2nc3cc(-c4ccc5nc(-c6ccc(N)cc6)[nH]c5c4)ccc3[nH]2)cc1` [Compound 1, 4,4′-(1H,3′H-5,5′-bibenzo[d]imidazole-2,2′-diyl)dianiline], for which the MIC in [1], in assay [2], in assay [3], in assay [4], in assay [5] and in assay [6] was below 1 µg/mL in each case. Also, the MIC in assay [7], in assay [8] and in [9] was below 1 µg/mL each time.
Regarding `Nc1cccc(-c2nc3cc(-c4ccc5[nH]c(-c6cccc(N)c6)nc5c4)ccc3[nH]2)c1` [Compound 2, 3,3′-(1H,1′H-5,5′-bibenzo[d]imidazole-2,2′-diyl)dianiline], the MIC in assay [1] was above 64 µg/mL; in [2] it was above 64 µg/mL; in assay [3], 1 to 16 µg/mL (≈ 2.4 to 38.4 µM); in [4], 1 to 16 µg/mL (≈ 2.4 to 38.4 µM); in [5] it was 1 to 16 µg/mL (≈ 2.4 to 38.4 µM); in assay [6], 1 to 16 µg/mL (≈ 2.4 to 38.4 µM). For the same compound, the MIC is 1 to 16 µg/mL (≈ 2.4 to 38.4 µM) in [7], 1 to 16 µg/mL (≈ 2.4 to 38.4 µM) in [8] and above 64 µg/mL in assay [9].
In the case of `Oc1ccc(-c2nc3cc(-c4ccc5[nH]c(-c6ccc(O)cc6)nc5c4)ccc3[nH]2)cc1` [Compound 3, 4,4′-(1H,1′H-5,5′-bibenzo[d]imidazole-2,2′-diyl)diphenol], the MIC is below 1 µg/mL in assay [1]; 1 to 16 µg/mL (≈ 2.39 to 38.2 µM) in assay [2]; below 1 µg/mL in assay [3]; below 1 µg/mL in assay [4]; below 1 µg/mL in assay [5]; below 1 µg/mL in assay [6]. The MIC is below 1 µg/mL in assay [7], below 1 µg/mL in assay [8] and 1 to 16 µg/mL (≈ 2.39 to 38.2 µM) in [9].
For `Cn1c(-c2ccc(N)cc2)nc2ccc(-c3ccc4[nH]c(-c5ccc(N)cc5)nc4c3)cc21` [Compound 4, 4,4′-(3′-methyl-1H,3′H-5,5′-bibenzo[d]imidazole-2,2′-diyl)dianiline], the MIC is above 64 µg/mL in [1]; above 64 µg/mL in assay [2]; 1 to 16 µg/mL (≈ 2.32 to 37.2 µM) in assay [3]; 17 to 64 µg/mL (≈ 39.5 to 149 µM) in assay [4]; below 1 µg/mL in assay [5]; 1 to 16 µg/mL (≈ 2.32 to 37.2 µM) in assay [6]. The MIC in [7] is below 1 µg/mL; in assay [8] it was above 64 µg/mL; in assay [9], above 64 µg/mL.
For the compound `Cn1c(-c2ccc(N)cc2)nc2cc(-c3ccc4[nH]c(-c5ccc(N)cc5)nc4c3)ccc21` [Compound 5, 4,4′-(1-methyl-1H,1′H-5,5′-bibenzo[d]imidazole-2,2′-diyl)dianiline], the MIC in [1] was 1 to 16 µg/mL (≈ 2.32 to 37.2 µM); in assay [2], 1 to 16 µg/mL (≈ 2.32 to 37.2 µM); in assay [3], below 1 µg/mL; in assay [4], 1 to 16 µg/mL (≈ 2.32 to 37.2 µM); in assay [5], below 1 µg/mL; in [6], below 1 µg/mL. Also, the MIC in assay [7] is below 1 µg/mL; in [8] it was 1 to 16 µg/mL (≈ 2.32 to 37.2 µM); in assay [9], 1 to 16 µg/mL (≈ 2.32 to 37.2 µM).
As to `CNc1ccc(-c2nc3cc(-c4ccc5[nH]c(-c6ccc(NC)cc6)nc5c4)ccc3[nH]2)cc1` [Compound 6, 4,4′-(1H,1′H-5,5′-bibenzo[d]imidazole-2,2′-diyl)bis(N-methylaniline)], the MIC in assay [1] was below 1 µg/mL; in assay [2], 1 to 16 µg/mL (≈ 2.25 to 36 µM); in assay [3], below 1 µg/mL; in [4], 1 to 16 µg/mL (≈ 2.25 to 36 µM); in assay [5], below 1 µg/mL; in assay [6], below 1 µg/mL. Besides, the MIC is below 1 µg/mL in assay [7], below 1 µg/mL in [8] and 1 to 16 µg/mL (≈ 2.25 to 36 µM) in assay [9].
As for `COc1ccc(-c2nc3cc(-c4ccc5[nH]c(-c6ccc(OC)cc6)nc5c4)ccc3[nH]2)cc1` [Compound 7, 2,2′-bis(4-methoxyphenyl)-1H,1′H-5,5′-bibenzo[d]imidazole], the MIC in assay [1], in [2], in assay [3], in assay [4], in assay [5] and in assay [6] was below 1 µg/mL in each case. The MIC in [7], in assay [8] and in assay [9] was below 1 µg/mL in each case.
In the case of `Nc1ccc(-c2nc3cc(-c4ccc5[nH]cnc5c4)ccc3[nH]2)cc1` [Compound 8, 4-(1H,1′H-5,5′-bibenzo[d]imidazol-2-yl)aniline], the MIC in assay [1] is 17 to 64 µg/mL (≈ 52.2 to 197 µM); in assay [2], 17 to 64 µg/mL (≈ 52.2 to 197 µM); in assay [3], 1 to 16 µg/mL (≈ 3.07 to 49.2 µM); in assay [4], 1 to 16 µg/mL (≈ 3.07 to 49.2 µM); in assay [5], 1 to 16 µg/mL (≈ 3.07 to 49.2 µM); in [6], 1 to 16 µg/mL (≈ 3.07 to 49.2 µM). Moreover, the MIC in assay [7], in [8] and in assay [9] was 1 to 16 µg/mL (≈ 3.07 to 49.2 µM) throughout.
For `Nc1ccc(-c2nc3cc(-c4ccc5[nH]c(-c6ccccc6)nc5c4)ccc3[nH]2)cc1` [Compound 9, 4-(2′-phenyl-1H,1′H-5,5′-bibenzo[d]imidazol-2-yl)aniline], the MIC in assay [1] was 1 to 16 µg/mL (≈ 2.49 to 39.9 µM); in [2], 17 to 64 µg/mL (≈ 42.3 to 159 µM); in [3], below 1 µg/mL; in assay [4] it was 1 to 16 µg/mL (≈ 2.49 to 39.9 µM); in assay [5], below 1 µg/mL; in assay [6], below 1 µg/mL. Further, the MIC in assay [7] was below 1 µg/mL; in assay [8], 1 to 16 µg/mL (≈ 2.49 to 39.9 µM); in assay [9], 1 to 16 µg/mL (≈ 2.49 to 39.9 µM).
In the case of `COc1ccc(-c2nc3ccc(-c4ccc5[nH]c(-c6ccccc6)nc5c4)cc3[nH]2)cc1` [Compound 10, 2′-(4-methoxyphenyl)-2-phenyl-1H,3′H-5,5′-bibenzo[d]imidazole], the MIC in assay [1] is below 1 µg/mL; in assay [2], 1 to 16 µg/mL (≈ 2.4 to 38.4 µM); in [3] it was below 1 µg/mL; in [4], below 1 µg/mL; in [5], below 1 µg/mL; in [6], below 1 µg/mL. Also, the MIC in assay [7], in [8] and in [9] was below 1 µg/mL in each case.
Take `Nc1ccc(-c2nc3cc(-c4ccc5[nH]c(-c6ccc(N)nc6)nc5c4)ccc3[nH]2)cn1` [Compound 11, 5,5′-(1H,1′H-5,5′-bibenzo[d]imidazole-2,2′-diyl)dipyridin-2-amine]: the MIC in assay [1] is above 64 µg/mL; in [2], 17 to 64 µg/mL (≈ 40.6 to 153 µM); in assay [3] it was 1 to 16 µg/mL (≈ 2.39 to 38.2 µM); in assay [4], below 1 µg/mL; in assay [5], below 1 µg/mL; in assay [6], below 1 µg/mL. In addition, the MIC was 1 to 16 µg/mL (≈ 2.39 to 38.2 µM) in assay [7], above 64 µg/mL in assay [8] and above 64 µg/mL in assay [9].
Consider `c1cc(-c2nc3cc(-c4ccc5[nH]c(-c6ccncc6)nc5c4)ccc3[nH]2)ccn1` [Compound 12, 2,2′-di(pyridin-4-yl)-1H,1′H-5,5′-bibenzo[d]imidazole], for which the MIC in [1] is above 64 µg/mL; in [2], above 64 µg/mL; in assay [3], above 64 µg/mL; in assay [4] it was below 1 µg/mL; in assay [5], below 1 µg/mL; in assay [6], below 1 µg/mL. Also, the MIC in assay [7], in assay [8] and in assay [9] was above 64 µg/mL in each case. In addition, in assay [4], the “selectivity for Clostridium difficile” value was “highly selective for Clostridium difficile”. The “antibacterial activity against Bacillus subtilis” value in assay [10] is on record as “no significant antibacterial activity”.

Values taken from patent publication US9763925B2, “Antibacterial compounds” (SUMMIT THERAPEUTICS PLC, priority 2008, dated 2017).
